Source: US7217688B2, “Methods and compositions for derepression of IAP-inhibited caspase” (The Burnham Institute, priority 2005, dated 2007)
Each block holds one molecule with its values, some of them ahead of it.

Assays:
Jurkat leukemia cells = assay: Jurkat cell death (Annexin V / propidium iodide flow cytometry); type: cell-based; conditions: for ability to induce apoptosis in Jurkat cells: micromolar concentrations, compared to DMSO control
Protocol: The following assay was used to test the ability of individual compounds from the TPI 1396 and TPI 1391 libraries to induce apoptosis of cultured tumor cell lines. Each of the compounds listed in Table IX was individually added to Jurkat leukemia cells (6.25×10^5 cells/mL) in RPMI containing 2.5% FBS at various concentrations for 20 hours. After incubation, cells were washed and stained with FITC-conjugated Annexin V antibody and propidium iodide (Biovision; Mountain View, Calif.). Cells were incubated for 20 minutes at room temperature in the dark and fluorescence was measured by flow cytometry (FACScan, Immunocytometry system; Becton-Dickinson; San Jose, Calif.). Cells staining positive for Annexin V were deemed non-viable.

full length XIAP = full length XIAP (Homo sapiens, UniProt P98170); assay: potency of IAP antagonists at restoring caspase-3 activity / SMAC competition assay (Table VIII)
full length XIAP, sequence (P98170 whole entry): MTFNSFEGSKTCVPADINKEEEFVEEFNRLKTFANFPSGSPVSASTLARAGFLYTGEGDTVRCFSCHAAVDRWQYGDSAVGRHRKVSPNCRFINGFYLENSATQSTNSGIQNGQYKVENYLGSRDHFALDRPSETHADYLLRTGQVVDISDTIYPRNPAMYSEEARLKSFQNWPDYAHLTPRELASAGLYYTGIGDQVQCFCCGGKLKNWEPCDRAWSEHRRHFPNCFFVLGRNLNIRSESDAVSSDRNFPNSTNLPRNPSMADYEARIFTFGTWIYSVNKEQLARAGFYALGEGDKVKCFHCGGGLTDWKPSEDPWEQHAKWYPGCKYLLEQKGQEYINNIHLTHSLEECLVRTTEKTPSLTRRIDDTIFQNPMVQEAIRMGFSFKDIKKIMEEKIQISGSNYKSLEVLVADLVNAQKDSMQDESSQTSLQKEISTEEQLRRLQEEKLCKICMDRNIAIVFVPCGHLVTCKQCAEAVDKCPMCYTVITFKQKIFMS

XIAP-inhibited caspase-3 = target: T1, XIAP-inhibited caspase-3 (Homo sapiens, UniProt P98170); assay: caspase derepression assay (XIAP-inhibited caspase-3, Ac-DEVD-AFC hydrolysis); type: biochemical; conditions: for Activity: Table XIV, XIAP derepression assay
T1 construct: in the derepression assay using full length XIAP; made in house; host or cells: bacteria
T1 sequence (P98170 whole entry): as above
Protocol: Caspase activity was assayed by release of 7-amino-4-trifluoromethyl-coumarin (AFC) from Ac-DEVD-AFC synthetic peptide using a Molecular Devices Spectromax 340 (see Zhou et al., J. Biol. Chem. 272:7797–7800 (1997)). […] The ratio of Vmax for hydrolysis of Ac-DEVD-AFC in the presence and absence of the candidate mixture was calculated and used to identify those that contain an agent that derepresses an IAP-inhibited caspase.
Screening of each mixture from the DCR390, TPI 1239 or TPI 1328 library, respectively, using the above described assay was carried out as follows. Each mixture was aliquoted in a 25 microliter volume and in duplicate to a well of a 96 well microtiter plate. […] Fluorescence of liberated AFC was immediately detected from each well for 30 minutes at 30 second intervals. The Vmax for hydrolysis of AC-DEVD-AFC from each well was measured using the softmax software package. Results of the screen for the DCR390 library are shown in Table I. Sets of mixtures having the same position fixed with different respective amino acids are arranged in 6 sections identified with the position number. […] The mixture in each section are arranged in descending order according to apparent velocity in the second column.
Briefly, recombinant proteins were produced in bacteria and purified as described, for example, in Deveraux et al., Nature 388:300–304(1997). […] Generation of fluorogenic AFC (7-amino-4-trifluoromethyl coumarin) product was measured with a spectrofluorometric plate reader in kinetic mode for 30 minutes at 37° C. using excitation and emission wavelengths of 405 nm and 510 nm, respectively. […] Control reactions lacked XIAP, and all assays were conducted in the linear range of substrate hydrolysis to avoid substrate depletion artifacts.

[1] = test system: NCI panel of 60 tumor cell lines; assay: NCI panel of 60 tumor cell lines, protein-based colorimetric assay; design: species or system human; conditions: 48 hours
Protocol: Selected polyphenylurea compounds were tested on the National Cancer Institute (NCI) panel of 60 tumor cell lines (see FIG. 28a and FIG. 29).

[2] = Table XI, different functionalities at R2

EC50 (full length XIAP; amount of compound necessary to restore caspase-3 activity to 50% of Vmax): 33.6 µM
Relative Potency (full length XIAP; fold relative to SMAC AVPI tetrapeptide): 3.7
SMILES: CCCCCCCN1C(=O)C(=O)N(C(CCCC)CNCc2ccccc2)CC1Cc1ccc2ccccc2c1 (stereo not drawn) [TPI 1391-21]
% nonviable cells (Jurkat leukemia cells; 1 μM, 20 hours): 16%
% nonviable cells (Jurkat leukemia cells; 5 μM (first column headed 5), 20 hours): 11%
% nonviable cells (Jurkat leukemia cells; 5 μM (second column headed 5), 20 hours): 18%
% nonviable cells (Jurkat leukemia cells; 10 μM, 20 hours): 44%
% nonviable cells (Jurkat leukemia cells; 25 μM, 20 hours): 91%
% nonviable cells (Jurkat leukemia cells; 50 μM, 20 hours): 94%

SMILES: CN(CCCCC(CNC(=O)Nc1ccccc1)N(CC1CCCN1CCC12CC3CC(CC(C3)C1)C2)C(=O)Nc1ccccc1)C(=O)Nc1ccccc1 (stereo not drawn) [TPI 1396-11]
Activity (relative caspase-3 activity, ratio of Vmax with compound to Vmax of caspase-3 and XIAP controls) (XIAP-inhibited caspase-3; Table X, R2 = L-Proline): 2.6
activity in the derepression assay using full length XIAP (XIAP-inhibited caspase-3; active / inactive): active
% nonviable cells (Jurkat leukemia cells; 1 µM): 14%
% nonviable cells (Jurkat leukemia cells; 10 μM): 90%
% nonviable cells (Jurkat leukemia cells; 25 µM): 90%
% nonviable cells (Jurkat leukemia cells; 50 µM): 90%
average LD50 for the 60 cell lines [1]: 10 ± 2.8 µM
median LD50 for the 60 cell lines [1]: 17 µM

Activity (relative caspase-3 activity, ratio of Vmax with compound to Vmax of caspase-3 and XIAP controls) (XIAP-inhibited caspase-3; [2]): 1.6
SMILES: COc1ccc(CCN(CCCC[C@@H](CN(C(=O)Nc2ccccc2)[C@@H](CNC(=O)Nc2ccccc2)CC2CCCCC2)N(C)C(=O)Nc2ccccc2)C(=O)Nc2ccccc2)cc1 [TPI 1396-25]

Activity (relative caspase-3 activity, ratio of Vmax with compound to Vmax of caspase-3 and XIAP controls) (XIAP-inhibited caspase-3; [2]): 1.3
SMILES: COc1ccc(CCN(C(=O)Nc2ccccc2)[C@H](Cc2ccccc2)CN(C(=O)Nc2ccccc2)[C@@H](CNC(=O)Nc2ccccc2)CC2CCCCC2)cc1 [TPI 1396-31]

Activity (XIAP-inhibited caspase-3): 209 µM
SMILES: CCN1CCC[C@@H]1CN(C)[C@@H](CNC(=O)Nc1ccccc1)CC1CCCCC1 [TPI 1567-5]

Activity (XIAP-inhibited caspase-3): 75 µM
SMILES: COc1ccc(CCN2CCC[C@@H]2CN(C)[C@@H](CNC(=O)Nc2ccc(C)cc2)CC2CCCCC2)cc1 [TPI 1567-11]
ability to induce apoptosis in Jurkat cells (Jurkat leukemia cells): capable of inducing apoptosis

Activity (XIAP-inhibited caspase-3): 124 µM
SMILES: COc1ccc(CCN2CCC[C@@H]2CN(C)[C@@H](CNC(=O)Nc2ccc(F)cc2)CC2CCCCC2)cc1 [TPI 1567-12]
ability to induce apoptosis in Jurkat cells (Jurkat leukemia cells): capable of inducing apoptosis

Activity (XIAP-inhibited caspase-3): 58 µM
SMILES: COc1ccc(CCN2CCC[C@@H]2CN(C)[C@@H](CNC(=O)Nc2ccc(I)cc2)CC2CCCCC2)cc1 [TPI 1567-13]
ability to induce apoptosis in Jurkat cells (Jurkat leukemia cells): capable of inducing apoptosis

Activity (XIAP-inhibited caspase-3): 81 µM
SMILES: COc1ccc(CCN2CCC[C@@H]2CN(C)[C@@H](CNC(=O)Nc2cc(Br)cc(Br)c2)CC2CCCCC2)cc1 [TPI 1567-14]
ability to induce apoptosis in Jurkat cells (Jurkat leukemia cells): capable of inducing apoptosis

Activity (XIAP-inhibited caspase-3): 61 µM
SMILES: CN(C[C@@H]1CCCN1CCC12CC3CC(CC(C3)C1)C2)[C@H](CCCCNC(=O)Nc1ccccc1)CNC(=O)Nc1ccccc1 [TPI 1567-18]

Activity (XIAP-inhibited caspase-3): 35 µM
SMILES: COc1ccc(CCN2C[C@@H](O)C[C@@H]2CN(C(=O)Nc2ccccc2)[C@@H](CNC(=O)Nc2ccccc2)CC2CCCCC2)cc1 [TPI 1567-23]

Activity (XIAP-inhibited caspase-3): 122 µM
SMILES: COc1ccc(CCN2C[C@@H](O)C[C@@H]2CN(C)[C@@H](CNC(=O)Nc2ccccc2)CC2CCCCC2)cc1 [TPI 1567-24]

Activity (XIAP-inhibited caspase-3): >283 µM
SMILES: COc1ccc(CCN2CCC[C@H]2CNC(=O)Nc2ccccc2)cc1 [TPI 1572-8]

Activity (XIAP-inhibited caspase-3): >210 µM
SMILES: O=C(NC[C@@H](CC1CCCCC1)N(C[C@@H]1CCCN1)C(=O)Nc1ccccc1)Nc1ccccc1 [TPI 1572-10]

Activity (XIAP-inhibited caspase-3): 89 µM
SMILES: CCN1CCC[C@H]1CN(C(=O)Nc1ccccc1)[C@@H](CNC(=O)Nc1ccccc1)CC1CCCCC1 [TPI 1572-11]

Activity (XIAP-inhibited caspase-3): 103 µM
SMILES: COc1ccc(CCN2CCC[C@H]2CN(C)[C@@H](CNC(=O)Nc2ccccc2)CC2CCCCC2)cc1 [TPI 1572-14]

Activity (XIAP-inhibited caspase-3): 171 µM
SMILES: COc1ccc(CCN2CCC[C@H]2CN(CCNC(=O)Nc2ccccc2)C(=O)Nc2ccccc2)cc1 [TPI 1572-15]

Activity (XIAP-inhibited caspase-3): 149 µM
SMILES: COc1ccc(CCN2CCC[C@H]2CN(C(=O)Nc2ccccc2)[C@H](C)CNC(=O)Nc2ccccc2)cc1 [TPI 1572-16]

Activity (XIAP-inhibited caspase-3): 132 µM
SMILES: CNC[C@@H](CC1CCCCC1)N(C[C@@H]1CCCN1CCc1ccc(OC)cc1)C(=O)Nc1ccccc1 [TPI 1572-17]

Activity (XIAP-inhibited caspase-3): 164 µM
SMILES: COc1ccc(CCN2CCC[C@H]2CN(C(=O)c2ccccc2)[C@@H](CNC(=O)c2ccccc2)CC2CCCCC2)cc1 [TPI 1572-18]

Activity (XIAP-inhibited caspase-3): >219 µM
SMILES: COc1ccc(CCN2CCC[C@H]2CN(C(C)=O)[C@@H](CNC(C)=O)CC2CCCCC2)cc1 [TPI 1572-19]
